Tests used:
dd male mice = assay: Acute toxicity test; assay type: in vivo; conditions: oral administration, mortality on the seventh day after administration
Description: The test compound was administered orally or intraperitoneally to 3 animals per group of dd male mice (body weight: 20±1 g). The minimum lethal dose (MLD) value was obtained by observing mortality on the seventh day after the administration calculated.

spinal cord-injured rats = assay: Inhibitory activity on detrusor hyperreflexia (cystometry test); assay type: in vivo, rat; conditions: average ± standard error
Description: The experiment was carried out according to the method of Cheng, et al. [Brain Res., Vol. 678, pp. 40-48 (1995)].
(§1) Female SD rats of 8 to 10 weeks of age (supplied by Japan SLC) were used in the test. Five to seven animals of these rats were put in each metal cage and reared by allowing them to freely take commercially available chow and water, in an animal room at room temperature between 19 and 25° C. and humidity between 30 and 70% under illumination for 12 hours (from 7:00 a.m. to 7:00 p.m.) per day.
An operation of spinal cord injury was performed in the rats. Each animal was anesthetized with diethyl ether and the skin of the back side thoracic cord part was incised. A laminectomy at the 7th to 8th thoracic vertebrae level was performed. Then, the thoracic cord at the T7-T8 segments was macroscopically cut and a section of spinal cord (about 5 mm) was removed, and the wound cavity of the removed part was filled with oxidized regenerated cellulose for hemostasis. The incised part was sutured with a surgical silk. After the spinal cord injury operation, urine was expressed manually twice per day (at 8:00-9:00 and 18:00-19:00) for about 3 weeks until autonomic micturition developed. An antibiotic (ampicillin, Sigma. Chemical Co.) was intramuscularly administered to the animals at a dose of 150 mg/kg once to twice per day for about 2 weeks.
(§2) Four to five weeks after the spinal cord injury, the rats were subjected to bladder catheterization. Under diethyl ether anesthesia, the bladder was exposed by midline incision of the abdomen. […] The bladder catheter was fixed with a surgical silk ligature and indwelled. The other end of the catheter was exposed subcutaneously from the back of the neck, plugged and then fixed to the skin with a surgical thread.
Four to six days after the bladder catheterization, a cystometry test was performed. The rats were put in a Bollman cage (Natsume Seisakusho Co., Ltd.) and a three-way cock was connected to the bladder catheter, one end of the cock was connected to a pressure transducer (Nihon Kohden Corp.) and the other end was connected to a 50-mL syringe (Terumo Corp.) arranged to an infusion pump (Harvard Apparatus, Inc.) for physiological saline infusion. The intravesical pressure signal from the pressure transducer was amplified with a strain pressure amplifier (AP-601G, Nihon Kohden Corp.) connected thereto, and was recorded on a thermal array recorder (RTA-1200, Nihon Kohden Corp.) via a polygraph system (RMP-6008, Nihon Kohden Corp.) containing the above amplifier. Sixty to ninety minutes after the completion of the preparation for the measurement, a room temperature physiological saline was infused into the bladder at a flow rate of 10 mL/h for 30 minutes, the occurence of micturition contractions was confirmed. Thirty minutes later, the infusion of physiological saline was carried out again for 30 minutes, and the intravesical pressure was measured to be used as the pre-administration value. Each of Compounds 1 to 6 was suspended in a 0.5 w/v % aqueous solution of methylcellulose at a concentration of 1 mg/mL suspension. The suspension was further diluted with a 0.5 w/v % aqueous solution of methylcellulose to prepare a suspension or solution for the administration at the intended concentration, which was then orally administered to the animals at a volume of 1 mL/kg. The period of 1, 3 and 5 hours after the dosing was used as the measuring time after the administration of the solvent or a compound tested, and the intravesical infusion of a physiological saline was carried out during a duration of 15 minutes around each measuring time (i.e. from 45 to 75 minutes, from 165 to 195 minutes and from 285 to 315 minutes after the administration of the compound).
Micturition contraction was measured as an index of the voiding function and pre-micturition contraction was measured as an index of detrusor hyperreflexia. […]

[1] = system: rats with bladder hypertrophy; assay: Inhibitory activity on detrusor instability (cystometry test after partial urethral obstruction); assay type: in vivo, rat; conditions: average ± standard error
Description: The experiment was carried out according to the method of Malmgren, et al. [J. Urol., Vol. 142, pp. 1134-1138 (1989)].
as §1, with “(7:00 a.m.-7:00” for “(from 7:00 a.m. to 7:00”
The rats were subjected to operation of partial urethral obstruction. Each animal was anesthetized by intraperitoneal administration of 50 mg/kg pentobarbital sodium (Dainippon Pharmaceutical Co., Ltd.), and the midline incision of the skin and muscle was made in the lower abdomen. A polyethylene tube (PE-20, Nippon Becton Dickinson Co., Ltd.) was inserted into urethra from the urethral to the bladder neck. After the proximal urethra was peeled and double-ligated, the polyethylene tube was pulled out to cause partial urethral obstruction. The incised part was-sutured with a surgical silk thread. An antibiotic (ampicillin, Sigma Chemical Co.) was intramusclarly administered to the animals at a dose of 150 mg/kg.
as §2, with “Six” for “Four to five”, “operation of the partial urethral obstruction,” for “spinal cord injury,”, “rats with bladder hypertrophy” for “rats”, “anesthesia with pentobarbital sodium,” for “diethyl ether anesthesia,”
Four to six days after the bladder catheterization, a cystometry test was performed. The rats were put in a Bollman cage (Natsume Seisakusho Co., Ltd.) and a three-way cock was connected to the bladder catheter, one end of the cock was connected to a pressure transducer (Nihon Kohden Corp.) and the other end was connected to a 50-mL syringe (Terumo Corp.) arranged to an infusion pump (Harvard Apparatus, Inc.) for physiological saline infusion. The intravesical pressure signal from the pressure transducer was amplified with a strain pressure amplifier (AP-601G, Nihon Kohden Corp.) connected thereto, and was recorded on a thermal array recorder (RTA-1200, Nihon Kohden Corp.) via a polygraph system (RMP-6008, Nihon Kohden Corp.) containing the above amplifier. Sixty to ninety minutes after the completion of the preparation for the measurement, intravesical infusion of a room temperature physiological saline at a flow rate of 10 mL/h was started and continued until the completion of the test, and the occurrence of micturition contractions and pre-micturition contractions were confirmed. The chart for 30 minutes after 3 hours from the commencement of the saline infusion was used as the values before the drug administration. Each of Compounds 1 to 3 was suspended in a 0.5 w/v % aqueous solution of methylcellulose at a concentration of 1 mg/mL. The suspension was further diluted with a 0.5 w/v % aqueous solution of methylcellulose to prepare a suspension or solution for the administration at the intended concentration. This was then orally administered to the animals at a volume of 1 mL/kg. The period of 1, 3 and 5 hours after the dosing was used as the measuring time after the administration of the solvent or a compound tested, and a duration of 15 minutes around each measuring time (45 to 75 minutes, 165 to 195 minutes and 285 to 315 minutes after the administration of the compound) was used as the measuring period.
Micturition contraction was used as an index of the voiding function and pre-micturition contraction was measure as an index of detrusor instability. […]

C[C@](O)(C(=O)Nc1cccc2c1C(=O)c1sccc1CS2(=O)=O)C(F)(F)F [Compound 1]
minimum lethal dose (MLD) (dd male mice): > 1000 mg/kg | micturition contractions (relative value, before administration = 100) (spinal cord-injured rats; 0.001 mg/kg p.o., after 1 hr.): 106.5 ± 11.3% | pre-micturition contractions (relative value, before administration = 100) (spinal cord-injured rats; 0.001 mg/kg p.o., after 1 hr.): 83.5 ± 6.8% | micturition contractions (relative value, before administration = 100) (spinal cord-injured rats; 0.001 mg/kg p.o., after 3 hrs.): 101.7 ± 9.5% | pre-micturition contractions (relative value, before administration = 100) (spinal cord-injured rats; 0.001 mg/kg p.o., after 3 hrs.): 95.4 ± 12.0% | micturition contractions (relative value, before administration = 100) (spinal cord-injured rats; 0.001 mg/kg p.o., after 5 hrs.): 103.1 ± 6.5% | pre-micturition contractions (relative value, before administration = 100) (spinal cord-injured rats; 0.001 mg/kg p.o., after 5 hrs.): 105.5 ± 20.8% | micturition contractions (relative value, before administration = 100) (spinal cord-injured rats; 0.01 mg/kg p.o., after 1 hr.): 114.4 ± 9.5% | pre-micturition contractions (relative value, before administration = 100) (spinal cord-injured rats; 0.01 mg/kg p.o., after 1 hr.): 59.6 ± 8.1 % | micturition contractions (relative value, before administration = 100) (spinal cord-injured rats; 0.01 mg/kg p.o., after 3 hrs.): 117.6 ± 13.9% | pre-micturition contractions (relative value, before administration = 100) (spinal cord-injured rats; 0.01 mg/kg p.o., after 3 hrs.): 51.2 ± 6.7 % | micturition contractions (relative value, before administration = 100) (spinal cord-injured rats; 0.01 mg/kg p.o., after 5 hrs.): 117.6 ± 12.7% | pre-micturition contractions (relative value, before administration = 100) (spinal cord-injured rats; 0.01 mg/kg p.o., after 5 hrs.): 42.2 ± 7.2 % | micturition contractions (relative value, before administration = 100) (spinal cord-injured rats; 0.1 mg/kg p.o., after 1 hr.): 109.3 ± 6.3% | pre-micturition contractions (relative value, before administration = 100) (spinal cord-injured rats; 0.1 mg/kg p.o., after 1 hr.): 52.3 ± 9.1 % | micturition contractions (relative value, before administration = 100) (spinal cord-injured rats; 0.1 mg/kg p.o., after 3 hrs.): 110.2 ± 5.4% | pre-micturition contractions (relative value, before administration = 100) (spinal cord-injured rats; 0.1 mg/kg p.o., after 3 hrs.): 33.3 ± 6.3 % | micturition contractions (relative value, before administration = 100) (spinal cord-injured rats; 0.1 mg/kg p.o., after 5 hrs.): 112.4 ± 7.0% | pre-micturition contractions (relative value, before administration = 100) (spinal cord-injured rats; 0.1 mg/kg p.o., after 5 hrs.): 28.5 ± 6.2 % | micturition contractions (relative value, before administration = 100) ([1]; 0.001 mg/kg p.o., after 1 hr.): 99.3 ± 2.3% | pre-micturition contractions (relative value, before administration = 100) ([1]; 0.001 mg/kg p.o., after 1 hr.): 105.9 ± 7.8% | micturition contractions (relative value, before administration = 100) ([1]; 0.001 mg/kg p.o., after 3 hrs.): 101.5 ± 3.3% | pre-micturition contractions (relative value, before administration = 100) ([1]; 0.001 mg/kg p.o., after 3 hrs.): 100.3 ± 10.0% | micturition contractions (relative value, before administration = 100) ([1]; 0.001 mg/kg p.o., after 5 hrs.): 98.7 ± 5.2% | pre-micturition contractions (relative value, before administration = 100) ([1]; 0.001 mg/kg p.o., after 5 hrs.): 104.2 ± 10.2% | micturition contractions (relative value, before administration = 100) ([1]; 0.01 mg/kg p.o., after 1 hr.): 99.6 ± 1.2% | pre-micturition contractions (relative value, before administration = 100) ([1]; 0.01 mg/kg p.o., after 1 hr.): 59.5 ± 4.1 % | micturition contractions (relative value, before administration = 100) ([1]; 0.01 mg/kg p.o., after 3 hrs.): 92.6 ± 3.2% | pre-micturition contractions (relative value, before administration = 100) ([1]; 0.01 mg/kg p.o., after 3 hrs.): 69.5 ± 4.4 % | micturition contractions (relative value, before administration = 100) ([1]; 0.01 mg/kg p.o., after 5 hrs.): 90.1 ± 4.3% | pre-micturition contractions (relative value, before administration = 100) ([1]; 0.01 mg/kg p.o., after 5 hrs.): 67.8 ± 5.5 % | micturition contractions (relative value, before administration = 100) ([1]; 0.1 mg/kg p.o., after 1 hr.): 106.2 ± 9.2% | pre-micturition contractions (relative value, before administration = 100) ([1]; 0.1 mg/kg p.o., after 1 hr.): 55.8 ± 8.2 % | micturition contractions (relative value, before administration = 100) ([1]; 0.1 mg/kg p.o., after 3 hrs.): 105.2 ± 9.6% | pre-micturition contractions (relative value, before administration = 100) ([1]; 0.1 mg/kg p.o., after 3 hrs.): 66.2 ± 4.7 % | micturition contractions (relative value, before administration = 100) ([1]; 0.1 mg/kg p.o., after 5 hrs.): 100.1 ± 8.6% | pre-micturition contractions (relative value, before administration = 100) ([1]; 0.1 mg/kg p.o., after 5 hrs.): 69.2 ± 7.4 %

Source: patent publication US7276532B2, “Remedies for vesical hyperactivity” (Kyowa Hakko Kogyo Co., Ltd., priority 2001, dated 2007)
